Where two headings read alike, the source gives them in different places.
Target: Kir1.1 (ROMK1) (Homo sapiens (Human), UniProt P48048)
Experiment: ROMK electrophysiology assay (IonWorks Quattro whole cell voltage clamp)
Format: cell-based
[1] = Chinese hamster ovary cells stably expressing Kir1.1, block during voltage step to 0 mV, 6 min compound incubation, read-out: ROMK Electrophysiology Assay IC50

Sequence of Kir1.1 (ROMK1) (P48048 whole entry): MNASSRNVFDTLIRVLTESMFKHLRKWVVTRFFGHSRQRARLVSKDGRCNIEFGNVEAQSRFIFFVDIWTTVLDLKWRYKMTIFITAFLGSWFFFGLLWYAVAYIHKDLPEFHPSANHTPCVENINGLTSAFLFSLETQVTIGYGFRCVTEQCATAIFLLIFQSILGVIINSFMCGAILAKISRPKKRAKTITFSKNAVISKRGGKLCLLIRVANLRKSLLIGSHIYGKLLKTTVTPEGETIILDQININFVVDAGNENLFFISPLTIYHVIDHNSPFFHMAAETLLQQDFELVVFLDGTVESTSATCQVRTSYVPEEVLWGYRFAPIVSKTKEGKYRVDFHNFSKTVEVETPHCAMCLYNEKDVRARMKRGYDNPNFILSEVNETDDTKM

SMILES	IC50 [µM]	IC50 [1] [µM]
COc1cc(CC(=O)N2CCN(CCc3ccc4c(c3C)COC4=O)CC2)c(F)cc1C#N [Example 48]	0.035	
O=C1OCc2cc(CCN3CCCN(C(=O)Cc4ccc(-n5cnnn5)cc4)CC3)ccc21 [Example 11]	0.012	
Cc1c(CCN2CCN(C(=O)Cc3cc(F)c(C#N)cc3F)CC2)ccc2c1COC2=O [Example 59]		0.094
N#Cc1ccc(CCN2CCN(C(=O)Cc3ccc(-n4cnnn4)cc3)CC2)cc1F [Example 39]		0.063
Cc1c(CCN2CCN(C(=O)C3CCc4nc(-n5cnnn5)ccc43)CC2)ccc2c1COC2=O (single isomer, unassigned) [Example 96]		0.061
Cc1c(CCN2CCN(C(=O)Cc3ccc(-n4cnnn4)cc3)CC2)ccc(F)c1C#N [Example 122]		0.037
Cc1c([C@@H](O)CN2CCN(C(=O)Cc3ccc(-n4cnnn4)nc3)C3CC32)ccc2c1COC2=O (stereo partly drawn) [Example 217, 5-[(1R)-1-hydroxy-2-(5-{[6-(1H-tetrazol-1-yl)pyridin-3-yl]acetyl}-2,5-diazabicyclo[4.1.0]hept-2-yl)ethyl]-4-methyl-2-benzofuran-1(3H)-one]		0.056
C[C@H]1Cc2cc(CCN3CCN(C(=O)C4CCc5nc(-n6cnnn6)ccc54)CC3)ccc2C(=O)O1 (single isomer, unassigned) [Example 177]		0.1

Source: patent US9056859B2, “Inhibitors of the renal outer medullary potassium channel” (Merck Sharp & Dohme Corp., priority 2010, dated 2015)
